The record followed here is patent US10966961B2, “Pyrazole derivatives as bromodomain inhibitors” (GLAXOSMITHKLINE INTELLECTUAL PROPERTY (NO.2) LIMITED, priority 2017, dated 2021).

For the first test, the target named is T1, BRD4 BD2 (Homo sapiens, UniProt O60885, Y97A).
T1 construct: BRD4 (1-477) (Y97A) and (Y390A); made in house; host or cells: E. coli (pET15b vector)
As to the kind of experiment: BRD4 BD2 TR-FRET competition assay. The format is binding. To be noted: BRD4 BD2 TR-FRET; read-out: pIC50 in the BRD4 BD2 assay (converted). The method, then:
Time Resolved Fluorescence Resonance Energy Transfer (TR-FRET) assay
Bromodomain binding was assessed utilising a time resolved fluorescent resonance energy transfer (TR-FRET) competition assay. To enable this approach a known, high affinity, pan-BET interacting small molecule was labelled with Alexa Fluor® 647, which is a far-red-fluorescent dye (Reference Compound X). Reference Compound X acts as a reporter of bromodomain binding and is the acceptor fluorophore component of the TR-FRET pair. Europium chelate, conjugated to an anti-6*His antibody, was utilised as the donor fluorophore in the TR-FRET pair. […] A TR-FRET signal is generated when the donor and acceptor fluorophores are in close proximity, between 20-80 Å, which is enabled in this assay by binding of Reference Compound X to the bromodomain protein.
Assay Principle: In order to generate a TR-FRET signal, donor fluorophore is excited by a laser at A337 nm, which subsequently leads to emission at λ618 nm. If the acceptor fluorophore is in close proximity then energy transfer can occur, which leads to emission of Alexa Fluor® 647 at λ665 nm. In the presence of competitor compound, Reference Compound X can be displaced from binding to the bromodomain. If displacement occurs, the acceptor fluorophore is no longer in proximity to the donor fluorophore, which prevents fluorescent energy transfer and, subsequently, a loss of Alexa Fluor® 647 emission at λ665 nm.
(§1) The competition of the compounds of formula (I) with Reference Compound X for binding to the BET family (BRD2, BRD3, BRD4 and BRDT) was assessed using protein truncates spanning both bromodomain 1 (BD1) and bromodomain 2 (BD2). In order to monitor differential binding to either BD1 or BD2, single residue mutations of key tyrosines to alanine were made in the acetyl lysine binding pockets. To validate this approach, a double residue mutant tandem domain protein was produced for each of the BET family members. Utilising a Fluorescence Polarisation approach, binding affinities for each of the single and double mutants for Reference Compound X were determined.
Final purification was completed by Superdex 200 prep grade size exclusion column. Purified protein was stored at −80° C. in 20 mM HEPES pH 7.5 and 100 mM NaCl. […] Protocol for Bromodomain BRD2, 3, 4 and T, BD1+BD2 mutant TR-FRET competition assays:
All assay components were dissolved in an assay buffer composing of 50 mM HEPES pH7.4, 50 mM NaCl, 5% Glycerol, 1 mM DTT and 1 mM CHAPS. Reference Compound X was diluted, in assay buffer containing 20 nM single mutant, tandem bromodomain protein, to a concentration equivalent to 2*Kd for this bromodomain. The solution containing bromodomain and Reference Compound X was added to dose response dilutions of test compound or DMSO vehicle (a maximum of 0.5% DMSO is used in this assay) in Greiner 384 well black low volume microtitre plates and subsequently incubated for 30 minutes at rt. An equal volume of 3 nM of anti-6*His Europium chelate was added to all wells, followed by a further 30 minute incubation at rt. TR-FRET was detected using a Perkin Elmer Multimode plate reader, by exciting the donor fluorophore at λ337 nm and subsequently, after a delay of 50 μsecs, measuring emission of the donor and acceptor fluorophores at λ615 nm and λ665 nm, respectively. In order to control these assays, 16 replicates each of uninhibited (DMSO vehicle) and inhibited (10*IC50 concentrations of Example 11 of WO 2011/054846A1) TR-FRET assays were included on every microtitre plate.
cA four parameter curve fit of the following form was then applied: y=a+((b−a)/(1+(10^x/10^c)^d)
Where ‘a’ is the minimum, ‘H’ is the Hill slope, ‘c’ is the pIC50 and ‘d’ is the maximum.
All compounds (Examples) were each tested in the BRD4 BD1 and the BRD4 BD2 TR-FRET assays essentially as described above. Those of skill in the art will recognise that in vitro binding assays and cell-based assays for functional activity are subject to experimental variability.
Take `CNC(=O)c1cc(C(=O)N[C@H]2[C@@H]3COC[C@@H]32)n([C@@H](C)c2ccccc2)n1` [Example 1, N^5-((1R,5S,6r)-3-Oxabicyclo[3.1.0]hexan-6-yl)-N^3-methyl-1-((S)-1-phenylethyl)-1H-pyrazole-3,5-dicarboxamide]: the IC50 is 63.1 nM.

With `CNC(=O)c1cc(C(=O)NC)n(Cc2ccccc2)n1` [Example 94, 1-Benzyl-N^3,N^5-dimethyl-1H-pyrazole-3,5-dicarboxamide], the IC50 is 1000 to 10000 nM.

For the compound `CNC(=O)c1cc(C(=O)NC(C)C)n(Cc2ccccc2)n1` [Example 96, 1-Benzyl-N^5-isopropyl-N^3-methyl-1H-pyrazole-3,5-dicarboxamide], the IC50 was 1000 to 10000 nM.

Turning to `CNC(=O)c1cc(C(=O)NC2CC2)n(Cc2ccc(C#N)cc2)n1` [Example 102, 1-(4-Cyanobenzyl)-N^5-cyclopropyl-N^3-methyl-1H-pyrazole-3,5-dicarboxamide], the IC50 is 1000 to 10000 nM.

As to `CNC(=O)c1cc(C(=O)NC2CC2)n(Cc2ccccc2OC)n1` [Example 106, N^5-Cyclopropyl-1-(2-methoxybenzyl)-N^3-methyl-1H-pyrazole-3,5-dicarboxamide], the IC50 is 1000 to 10000 nM.

As for `CCNC(=O)c1cc(C(=O)N[C@H]2CC[C@H](O)CC2)n([C@@H](C)c2ccccc2)n1` [Example 108, N^3-Ethyl-N^5-((1r,4S)-4-hydroxycyclohexyl)-1-((S)-1-phenylethyl)-1H-pyrazole-3,5-dicarboxamide], the IC50 was 1000 to 10000 nM.

As to `CNC(=O)c1cc(C(=O)N[C@H]2[C@@H]3COC[C@@H]32)n([C@H](C)c2ccccc2)n1` [Example 109, N^5-((1R,5S,6r)-3-Oxabicyclo[3.1.0]hexan-6-yl)-N^3-methyl-1-((R)-1-phenylethyl)-1H-pyrazole-3,5-dicarboxamide], the IC50 is 1000 to 10000 nM.

`CNC(=O)c1cc(C(=O)NC(C)(C)C)n([C@@H](C)c2ccccc2)n1` [Example 112, (S)-N^5-(tert-Butyl)-N^3-methyl-1-(1-phenylethyl)-1H-pyrazole-3,5-dicarboxamide]: the IC50 is 1000 to 10000 nM.

With `CNC(=O)c1cc(C(=O)N[C@H]2[C@@H]3COC[C@@H]32)n([C@H](C)c2cccc3[nH]ccc23)n1` [Example 132, 1-((R)-1-(1H-Indol-4-yl)ethyl)-N^5-((1R,5S,6r)-3-oxabicyclo[3.1.0]hexan-6-yl)-N^3-methyl-1H-pyrazole-3,5-dicarboxamide], the IC50 is 1000 to 10000 nM.

Take `CNC(=O)c1cc(C(=O)N[C@H]2C[C@@H]2C)n(C(C)c2ccnc3c2ccn3S(=O)(=O)c2ccc(C)cc2)n1` (stereo partly drawn) [Example 135, N^3-Methyl-N^5-((1S,2S)-2-methylcyclopropyl)-1-(1-(1-tosyl-1H-pyrrolo[2,3-b]pyridin-4-yl)ethyl)-1H-pyrazole-3,5-dicarboxamide]: the IC50 is 1000 to 10000 nM.

With `CNC(=O)c1cc(C(=O)N[C@H]2[C@@H]3COC[C@@H]32)n([C@@H](C)c2ccccc2OC)n1` [Example 136, N^5-((1R,5S,6r)-3-Oxabicyclo[3.1.0]hexan-6-yl)-1-((S)-1-(2-methoxyphenyl)ethyl)-N^3-methyl-1H-pyrazole-3,5-dicarboxamide], the IC50 is 1000 to 10000 nM.

Take `CNC(=O)c1cc(C(=O)N[C@H]2C[C@@H]2C)n([C@H](C)c2ccnc3[nH]ccc23)n1` [Example 137, 1-((R)-1-(1H-Pyrrolo[2,3-b]pyridin-4-yl)ethyl)-N^3-methyl-N^5-((1S,2S)-2-methylcyclopropyl)-1H-pyrazole-3,5-dicarboxamide]: the IC50 is 1000 to 10000 nM.

Regarding `CNC(=O)c1cc(C(=O)N[C@H]2[C@@H]3C[C@@H](O)C[C@@H]32)n([C@H](C)c2ccc(C(F)(F)F)cc2)n1` [Example 229], the IC50 was 1000 to 10000 nM.

Turning to `CNC(=O)c1cc(C(=O)NC2CC2)nn1Cc1ccc2[nH]ccc2c1` [Example 233], the IC50 is 1000 to 10000 nM.

In the case of `CNC(=O)c1cc(C(=O)NC2CC2)nn1Cc1cccc2[nH]ccc12` [Example 234], the IC50 is 1000 to 10000 nM.

Take `CNC(=O)c1cc(C(=O)N[C@@H]2C[C@@H](C)[C@H](O)[C@@H](C)C2)n([C@@H](C)c2ccccc2)n1` [Example 236]: the IC50 is 1000 to 10000 nM.

Regarding `CNC(=O)c1cc(C(=O)N[C@H]2[C@@H]3COC[C@@H]32)n([C@H](C)c2ccc(Cl)c(F)c2)n1` [Example 237], the IC50 is 1000 to 10000 nM.

On to `CNC(=O)c1cc(C(=O)N[C@H]2[C@@H]3C[C@H](O)C[C@@H]32)n([C@H](C)c2cccc(C(F)(F)F)c2)n1` [Example 238], for which the IC50 is 1000 to 10000 nM.

For the compound `CNC(=O)c1cc(C(=O)Nc2onc(C)c2C#N)n([C@@H](C)c2ccccc2)n1` [Example 239], the IC50 was 1000 to 10000 nM.

Consider `CNC(=O)c1cc(C(=O)Nc2nnc(C(F)(F)F)s2)n([C@@H](C)c2ccccc2)n1` [Example 240], for which the IC50 is 1000 to 10000 nM.

For the compound `CNC(=O)c1cc(C(=O)NC2[C@H]3C[C@H](O)C[C@@H]23)n([C@H](C)c2cccc(C(F)(F)F)c2)n1` (stereo partly drawn) [Example 241], the IC50 was 1000 to 10000 nM.

Regarding `CNC(=O)c1cc(C(=O)Nc2c(C)noc2C)n([C@@H](C)c2ccccc2)n1` [Example 248], the IC50 is 1000 to 10000 nM.

The same test, now with this note: BRD4 BD2 pIC50 − BRD4 BD1 pIC50; in at least one of the TR-FRET assays.
As for `CNC(=O)c1cc(C(=O)N[C@H]2[C@@H]3COC[C@@H]32)n([C@@H](C)c2ccccc2)n1` [Example 1, N^5-((1R,5S,6r)-3-Oxabicyclo[3.1.0]hexan-6-yl)-N^3-methyl-1-((S)-1-phenylethyl)-1H-pyrazole-3,5-dicarboxamide], the “selectivity for BRD4 BD2 over BRD4 BD1” value is 2.8 log units.

A further test relates to double residue mutant tandem domain BET proteins (BRD2, BRD3, BRD4 and BRDT). As to the kind of experiment: Fluorescence Polarisation binding of Reference Compound X to mutant tandem BET proteins. Also on record: species or system Human. To be noted: double mutant vs non mutated tandem BET proteins. The method, then: as §1, with “determined. […] The affinities of the single mutated bromdomain tandem proteins for Reference Compound X were equi-potent with the corresponding non-mutated BET protein. […] In the TR-FRET competition assay, Reference Compound X is used at a concentration that is equivalent to the Kd for the non-mutated bromodomain, which ensures that no binding at the mutated bromodomain is detected. […]” for “determined.”
Consider `COc1ccc2c(c1)C(c1ccc(Cl)cc1)=N[C@@H](CC(=O)NCCCCCNC(=O)CCCCCC1(C)/C(=C/C=C/C=C/C3=[N+](CCCCS(=O)(=O)O)c4ccc(S(=O)(=O)O)cc4C3(C)C)N(CCCCS(=O)(=O)[O-])c3ccc(S(=O)(=O)O)cc31)c1nnc(C)n1-2` (stereo partly drawn) [Reference Compound X], for which the “reduction in Kd (affinity) of double mutant tandem proteins versus wild type tandem BET proteins” value is listed as over 1000 fold.
